pEC50, pIC50: −log10 of the molar value. Where two headings read alike, the source gives them in different places.
Key:
Ramos = assay: CellTiter-Glo proliferation/viability assay; format: cell-based, human; settings: Homo sapiens, Ramos, read-out: Ramos EC50
Lyn [1] = biological target: T1, Lyn (Homo sapiens (Human), UniProt P07948); settings: read-out: Lyn IC50
DoHH2 = assay: CellTiter-Glo proliferation/viability assay; format: cell-based, human; settings: Homo sapiens, DOHH-2
Src [2] = biological target: T2, Src (Homo sapiens (Human), UniProt P12931); assay: biochemical
Lyn [3] = biological target: T1, Lyn; assay: biochemical
DoHH2 cells = settings: treated 24 hours
Src [4] = biological target: T2, Src; settings: read-out: Src IC50
BTK = BTK (Homo sapiens (Human), UniProt Q06187)
[5] = tested on: PLCγ2 phosphorylation in Ramos cells; assay: PLCγ2 phosphorylation by flow cytometry; format: cell-based, human; settings: Homo sapiens, flow cytometry, anti-phospho PLCγ2 (Tyr1217), four concentrations, read-out: Inhibition of phosphorylation of PLC-γ2 EC50
Description: Ramos cells were cultured in RPMI 1640 media with 10% FBS and were starved overnight (18 h) in 1% FBS containing media and on the next day pretreated with inhibitor for 2 h before stimulation. Cells were stimulated to induce BTK network dependent signal transduction pathways using mouse anti-human IgM (final concentration 10 ug/ml; Invitrogen) antibodies and 3.3 mM H2O2 mixture for 2 minutes followed by F(Ab) fragment that cross-linked the anti-IgM antibody (final concentration 10 ug/ml), and 3.3 mM H2O2 for 8 minutes. Cell lysates were prepared in lysis buffer containing protease and phosphatase inhibitors, quantified using the BCA protein assay kit (Pierce) and used for Western blotting. Antibodies specifically targeted to the molecules of interest, PLCγ2 phosphorylated at Tyr1217 and total PLCγ2, (Cell Signaling Technology) were used in a standard Western blotting procedure.
PLCγ2 phosphorylation was also assessed by flow cytometry. Cells were similarly stimulated and following stimulation, Cytofix buffer (Becton Dickinson) was added, cells were centrifuged and the cell pellets incubated on ice with Phosflow perm buffer III (Becton Dickinson). These cell pellets were washed with Perm/Wash buffer (Becton Dickinson); resuspended and labeled for flow cytometry analysis in a staining mixture containing Perm/Wash buffer and PE-labeled anti-phosphoPCLγa2 (Tyr1217) antibody (Becton Dickinson). The samples were washed with Perm/Wash buffer and analyzed on a FACS Calibur flow cytometer using CellQuest Pro software. As mentioned for the Western blot experiments, phosphorylation of PLCγ2 at Tyr1217 along with Tyr753, Tyr759 and Tyr1197 is correlated with increased PLCγ2 activity. The readout for BTK network signaling was inhibition of phosphorylation of PLCγ2. Cells were gated to exclude dead or dying cells. Fluorescence signals from the antibody staining were plotted in logarithmic units and data was analyzed using Cellquest Pro software. […] An ED50 was calculated based on the geometric mean of fluorescence intensity observed for treatment for four different concentrations of the inhibitors (see Table 7 and FIG. 6). […] Thus treatment with amino naphthyridinones inhibits PLCγ2 phosphorylation consistent with inhibition of BTK and/or LYN activity.
Following stimulation, cells were prepared for analysis by flow cytometry as described above. In short, cells were fixed and permeabilized using Cytofix buffer, Phosflow perm buffer and Perm/Wash buffer (Becton Dickinson). The cells were stained with PE-labeled anti-phosphoPCLγ2 (Tyr759) antibody (Becton Dickinson) and analyzed on a FACS Calibur flow cytometer using CellQuest Pro software. […] Thus aminonaphthyridinones are useful for the indirect inhibition of PLCγ2 phosphorylation.

[6] = Table 4, DoHH2 cells, read-out: EC50 (Proliferation)

T1 sequence (P07948 whole entry): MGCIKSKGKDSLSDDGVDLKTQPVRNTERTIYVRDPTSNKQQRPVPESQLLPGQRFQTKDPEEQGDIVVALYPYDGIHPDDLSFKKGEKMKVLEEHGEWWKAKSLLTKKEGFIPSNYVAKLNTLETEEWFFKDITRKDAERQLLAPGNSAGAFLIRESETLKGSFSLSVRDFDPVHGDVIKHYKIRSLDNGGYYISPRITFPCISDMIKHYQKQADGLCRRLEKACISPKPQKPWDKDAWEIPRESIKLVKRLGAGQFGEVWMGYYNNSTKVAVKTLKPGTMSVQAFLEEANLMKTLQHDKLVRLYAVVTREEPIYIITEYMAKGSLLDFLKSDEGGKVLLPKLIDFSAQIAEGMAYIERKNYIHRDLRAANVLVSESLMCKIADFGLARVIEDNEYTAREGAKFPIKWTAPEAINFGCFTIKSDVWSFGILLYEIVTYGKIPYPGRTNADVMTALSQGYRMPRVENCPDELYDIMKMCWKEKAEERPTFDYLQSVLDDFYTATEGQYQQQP
T2 sequence (P12931 whole entry, looked up): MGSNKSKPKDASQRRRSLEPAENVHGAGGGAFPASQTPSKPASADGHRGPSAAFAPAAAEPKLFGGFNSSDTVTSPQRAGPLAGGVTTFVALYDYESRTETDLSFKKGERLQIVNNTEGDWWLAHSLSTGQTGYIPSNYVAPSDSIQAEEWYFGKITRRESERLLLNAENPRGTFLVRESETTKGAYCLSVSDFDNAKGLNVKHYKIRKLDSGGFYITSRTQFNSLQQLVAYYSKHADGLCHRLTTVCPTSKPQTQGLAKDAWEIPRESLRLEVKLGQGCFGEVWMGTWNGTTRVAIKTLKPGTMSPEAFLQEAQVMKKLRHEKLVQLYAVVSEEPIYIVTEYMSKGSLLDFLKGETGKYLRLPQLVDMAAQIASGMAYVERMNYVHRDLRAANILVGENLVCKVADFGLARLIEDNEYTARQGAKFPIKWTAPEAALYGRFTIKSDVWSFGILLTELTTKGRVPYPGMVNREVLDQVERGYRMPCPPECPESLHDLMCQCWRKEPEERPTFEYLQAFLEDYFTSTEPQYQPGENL
Sequence of BTK (Q06187 whole entry): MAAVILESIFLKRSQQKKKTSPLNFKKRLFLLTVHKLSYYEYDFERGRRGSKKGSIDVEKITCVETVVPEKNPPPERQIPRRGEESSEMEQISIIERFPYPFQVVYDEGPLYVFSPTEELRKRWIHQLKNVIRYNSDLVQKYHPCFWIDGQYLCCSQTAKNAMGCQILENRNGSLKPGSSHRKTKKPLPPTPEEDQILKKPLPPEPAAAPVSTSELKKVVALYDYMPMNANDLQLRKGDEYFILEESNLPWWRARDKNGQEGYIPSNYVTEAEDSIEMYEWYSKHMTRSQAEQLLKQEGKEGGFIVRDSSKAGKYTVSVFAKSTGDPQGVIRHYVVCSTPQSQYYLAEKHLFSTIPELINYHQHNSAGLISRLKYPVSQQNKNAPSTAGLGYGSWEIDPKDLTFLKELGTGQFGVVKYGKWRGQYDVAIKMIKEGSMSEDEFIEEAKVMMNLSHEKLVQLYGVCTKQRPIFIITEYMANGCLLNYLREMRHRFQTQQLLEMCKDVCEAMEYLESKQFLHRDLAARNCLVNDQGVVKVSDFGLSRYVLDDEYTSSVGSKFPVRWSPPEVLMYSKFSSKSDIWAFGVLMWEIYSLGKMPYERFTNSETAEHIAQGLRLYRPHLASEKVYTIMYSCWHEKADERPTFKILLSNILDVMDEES

SMILES	pEC50 (Ramos; 48 h)	pIC50 (Lyn [1])	pEC50 (DoHH2; 48 hrs, read-out: DoHH2 EC50)	pEC50 (DoHH2; [6])	pIC50 (Src [2])	pIC50 (Lyn [3])	pEC50 (Ramos; 48 hrs)	Effect on Cell Cycle (DoHH2 cells)	pIC50 (Src [4])	pIC50 (BTK)	pIC50 (BTK; read-out: BTK IC50)	pIC50 (Lyn [3]; Lyn IC50)	pEC50 [5]
CCN(CC)CCOc1ccc(Nc2cc3c(cn2)cc(C(C)C)c(=O)n3-c2ccccc2)nc1 [Compound 18, 7-[5-(2-Diethylamino-ethoxy)-pyridin-2-ylamino]-3-isopropyl-1-phenyl-1H-[1,6]naphthyridin-2-one]	< 5.00	6.00 to 7.00	> 6.00	> 6.00	6.00 to 7.00	6.00 to 7.00							
CCc1cc2cnc(Nc3ccc(C)cn3)cc2n(CC)c1=O [Compound 19, 1,3-Diethyl-7-(5-methyl-pyridin-2-ylamino)-1H-[1,6]naphthyridin-2-one]		< 5.30	5.00 to 6.00	5.00 to 6.00			5.00 to 6.00	No Arrest	< 5.30	6.00 to 7.00			
CCn1c(=O)c(-c2ccccc2)cc2cnc(Nc3ccc(F)cn3)cc21 [Compound 28, 1-Ethyl-7-(5-fluoro-pyridin-2-ylamino)-3-phenyl-1H-[1,6]naphthyridin-2-one]		< 5.30	5.00 to 6.00	5.00 to 6.00			5.00 to 6.00	No Arrest	< 5.30		< 5.30		
CCn1c(=O)c(-c2ccccc2C)cc2cnc(Nc3ccc(C)cn3)cc21 [Compound 45, 1-ethyl-7-(5-methylpyr—idin-2-ylamino)-3-o-tolyl-1,6-naphthyridin-2(1H)-one]	< 5.00	6.00 to 7.00	< 5.00		6.00 to 7.00	6.00 to 7.00				6.00 to 7.00	6.00 to 7.00		
CCN(CC)CCOc1ccc(Nc2cc3c(cn2)cc(C(C)C)c(=O)n3C2CCC2)nc1 [Compound 47, 1-Cyclobutyl-7-[5-(2-diethylamino-ethoxy)-pyridin-2-ylamino]-3-isopropyl-1H-[1,6]naphthyridin-2-one]								G1 Arrest					
CCN(CC)CCOc1ccc(Nc2cc3c(cn2)cc(-c2ccccc2)c(=O)n3CC2CCN(C)C2)nc1 (stereo not drawn) [Compound 65, 7-((5-(2-(diethylamino)ethoxy)pyridin-2-yl)amino)-1-((1-methylpyrrolidin-3-yl)methyl)-3-phenyl-1,6-naphthyridin-2(1H)-one]	< 5.00		> 6.00		6.00 to 7.00						< 5.30	5.30 to 6.00	
O=c1c(-c2c(F)cccc2F)cc2cnc(Nc3ccc(F)cn3)cc2n1C1CCCC1 [Compound 77, 1-cyclopentyl-3-(2,6-difluorophenyl)-7-((5-fluoropyridin-2-yl)amino)-1,6-naphthyridin-2(1H)-one]		> 7.00	> 6.00	> 6.00			< 5.00	G1 Arrest	> 7.00				
CN1CCC(n2c(=O)c(-c3c(F)cccc3F)cc3cnc(Nc4ccc(F)cn4)cc32)CC1 [Compound 79, 3-(2,6-difluorophenyl)-7-((5-fluoropyridin-2-yl)amino)-1-(1-methylpiperidin-4-yl)-1,6-naphthyridin-2(1H)-one]		> 7.00	> 6.00	> 6.00			5.00 to 6.00	G1 Arrest	5.59				
O=c1c(-c2c(F)cccc2F)cc2cnc(Nc3ccc(F)cn3)cc2n1C1CCOC1 (stereo not drawn) [Compound 83, 3-(2,6-difluorophenyl)-7-((5-fluoropyridin-2-yl)amino)-1-(tetrahydrofuran-3-yl)-1,6-naphthyridin-2(1H)-one]	5.00 to 6.00	> 7.00	> 6.00						> 7.00				6.35
CCN(CC)CCOc1ccc(Nc2cc3c(cn2)cc(-c2ccccc2)c(=O)n3-c2cccnc2)nc1 [Compound 84, 7-[5-(2-Diethylamino-ethoxy)-pyridin-2-ylamino]-3-phenyl-1-pyridin-3-yl-1H-[1,6]naphthyridin-2-one]			5.00 to 6.00		6.00 to 7.00	5.30 to 6.00	< 5.00			6.00 to 7.00			
CCN(CC)CCOc1ccc(Nc2cc3c(cn2)cc(-c2ccccn2)c(=O)n3CC)nc1 [Compound 102, 7-((5-(2-(diethylamino)ethoxy)pyridin-2-yl)amino)-1-ethyl-3-(pyridin-2-yl)-1,6-naphthyridin-2(1H)-one]	< 5.00		5.00 to 6.00		6.00 to 7.00						< 5.30	6.00 to 7.00	
CCN(CC)CCOc1ccc(Nc2cc3c(cn2)cc(-c2ccc(SC)cc2)c(=O)n3CC)nc1 [Compound 104, 7-((5-(2-(diethylamino)ethoxy)pyridin-2-yl)amino)-1-ethyl-3-(4-(methylthio)phenyl)-1,6-naphthyridin-2(1H)-one]	5.00 to 6.00		5.00 to 6.00		6.00 to 7.00	6.00 to 7.00					< 5.30		
CCn1c(=O)c(-c2ccccc2)cc2cnc(Nc3ccc(CN4CCNCC4)cn3)cc21 [Compound 110, 1-ethyl-3-phenyl-7-((5-(piperazin-1-ylmethyl)pyridin-2-yl)amino)-1,6-naphthyridin-2(1H)-one]			> 6.00		6.00 to 7.00	6.00 to 7.00	5.00 to 6.00				> 7.00		
CCn1c(=O)c(-c2ccccc2)cc2cnc(Nc3ccc(CN4CCN(S(C)(=O)=O)CC4)cn3)cc21 [Compound 111, 1-ethyl-7-((5-((4-(methylsulfonyl)piperazin-1-yl)methyl)pyridin-2-yl)amino)-3-phenyl-1,6-naphthyridin-2(1H)-one]			> 6.00		6.00 to 7.00	6.00 to 7.00	5.00 to 6.00				> 7.00		
CCn1c(=O)c(-c2ccccc2)cc2cnc(Nc3cn(C)cn3)cc21 [Compound 113, 1-ethyl-7-((1-methyl-1H-imidazol-4-yl)amino)-3-phenyl-1,6-naphthyridin-2(1H)-one]	< 5.00		< 5.00		6.00 to 7.00	6.00 to 7.00				5.30 to 6.00			
CCn1c(=O)c(-c2ccccc2)cc2cnc(Nc3cn(CCOC)cn3)cc21 [Compound 114, 1-ethyl-7-((1-(2-methoxyethyl)-1H-imidazol-4-yl)amino)-3-phenyl-1,6-naphthyridin-2(1H)-one]	< 5.00		5.00 to 6.00		6.00 to 7.00	5.30 to 6.00					> 7.00		
CCn1c(=O)c(-c2cc([S+](C)[O-])ccc2F)cc2cnc(Nc3ccc(N(C)C4CCN(C)CC4)cn3)cc21 (stereo not drawn) [Compound 117, 1-ethyl-3-(2-fluoro-5-(methylsulfinyl)phenyl)-7-((5-(methyl(1-methylpiperidin-4-yl)amino)pyridin-2-yl)amino)-1,6-naphthyridin-2(1H)-one]	< 5.00		5.00 to 6.00		6.00 to 7.00	> 7.00				6.00 to 7.00			
O=c1c(-c2c(F)cccc2F)cc2cnc(Nc3ccc(F)cn3)cc2n1CCO [Compound 125, 3-(2,6-difluorophenyl)-7-((5-fluoropyridin-2-yl)amino)-1-(2-hydroxyethyl)-1,6-naphthyridin-2(1H)-one]	< 5.00		> 6.00		6.00 to 7.00	6.00 to 7.00				6.00 to 7.00			
NCCn1c(=O)c(-c2c(F)cccc2F)cc2cnc(Nc3ccc(F)cn3)cc21 [Compound 127, 1-(2-aminoethyl)-3-(2,6-difluorophenyl)-7-((5-fluoropyridin-2-yl)amino)-1,6-naphthyridin-2(1H)-one]			5.00 to 6.00		6.00 to 7.00	6.00 to 7.00	< 5.00				> 7.00		
COCCn1c(=O)c(C(C)C)cc2cnc(Nc3ccc(F)cn3)cc21 [Compound 128, 7-((5-fluoropyridin-2-yl)amino)-3-isopropyl-1-(2-methoxyethyl)-1,6-naphthyridin-2(1H)-one]			5.00 to 6.00		5.30 to 6.00	5.30 to 6.00	< 5.00			5.30 to 6.00			
